Reference: publication PMC12389355, “Physiologically Based Pharmacokinetic Modeling to Assess Perpetrator and Victim Cytochrome P450 2C Induction Risk” (Pharmaceutics, 2025)
Read-outs that look alike come from different tables or passages of the source.

Experiments:
[1] = system: CYP2C8; assay: in vitro; conditions: human
[2] = system: CYP2C9; assay: in vitro; conditions: human
[3] = system: CYP2C19; assay: in vitro; conditions: human
[4] = system: CYP2B6; assay: in vitro; conditions: human
[5] = system: CYP2C9; assay: in vitro; conditions: human, probe diclofenac (4-hydroxy diclofenac formation)
[6] = system: CYP2C8; assay: CYP2C8 mRNA induction in HTC model
[7] = system: CYP2C9; assay: CYP2C9 mRNA induction in HTC model
[8] = system: CYP2B6; assay: CYP2B6 mRNA induction in HTC model
[9] = system: CYP2C19; assay: CYP2C19 mRNA induction in HTC model
[10] = system: CYP3A4; assay: CYP3A4 mRNA induction in human hepatocyte triculture (HTC) model
[11] = system: CYP3A4; assay: CYP3A4 enzyme activity induction in HTC model (midazolam 1-hydroxylation)
[12] = system: CYP2C9; assay: CYP2C9 enzyme activity induction in HTC model (diclofenac 4-hydroxylation)
[13] = system: CYP2C19; assay: CYP2C19 enzyme activity induction in HTC model (omeprazole 5-hydroxylation)
[14] = cited from earlier work
[15] = system: CYP3A4; assay: in vitro; conditions: human
[16] = system: CYP3A4; conditions: cited from earlier work; for fm CYP3A4: victim drug, References of Tables 3 and 4 ([27]-[44])
[17] = system: CYP2C19; conditions: cited from earlier work
[18] = system: CYP2C8; set-up: method as in References column of Tables 3 and 4 ([27]-[44]); conditions: victim drug; References of Tables 3 and 4 ([27]-[44]); cited from earlier work
[19] = system: CYP2B6; set-up: method as in PMID 29802934; conditions: PHH spheroids; cited from earlier work
[20] = system: CYP2C8; set-up: method as in PMID 29802934; conditions: PHH spheroids; cited from earlier work
[21] = system: CYP2C19; set-up: method as in PMID 26658225; conditions: PHH spheroids, observed in two of the three donors; cited from earlier work
[22] = system: CYP2C9; conditions: cited from earlier work
[23] = system: CYP2B6; conditions: cited from earlier work
[24] = system: Other CYPs; conditions: victim drug; ref [35],[36]; cited from earlier work
[25] = system: CYP1A2; conditions: cited from earlier work
[26] = Donor 1, nominal concentrations, 96 h
[27] = victim drug after administration with rifampicin, References of Table 4 ([27]-[43]), DIDB
[28] = victim drug, References of Tables 3 and 4 ([27]-[44])

CNC(=O)c1ccc(N2C(=S)N(c3cnc(C#N)c(C(F)(F)F)c3)C(=O)C23CCC3)cc1F [Apalutamide, apalutamide]
EC50 at 96 h [1]: 1.68 µM | EC50 at 96 h [2]: 0.794 µM | EC50 at 96 h [3]: 4.01 µM | EC50 at 96 h [4]: 4.44 µM | EC50 at 96 h [5]: 13.1 µM | Emax Fold ([6]; Donor 1): […] | EC50 ([6]; Donor 2): 1.22 µM | Emax Fold ([6]; Donor 2): […] | EC50 ([6]; Donor 3): 1.26 µM | Emax Fold ([6]; Donor 3): […] | fold-induction (Emax) ([6]; range across three donors): […] | Emax Fold ([7]; Donor 1): […] | EC50 ([7]; Donor 2): 0.419 µM | Emax Fold ([7]; Donor 2): […] | EC50 ([7]; Donor 3): 0.474 µM | Emax Fold ([7]; Donor 3): […] | fold-induction (Emax) ([7]; range across three donors): […] | Emax Fold ([8]; Donor 1): […] | EC50 ([8]; Donor 2): 2.98 µM | Emax Fold ([8]; Donor 2): […] | EC50 ([8]; Donor 3): 2.96 µM | Emax Fold ([8]; Donor 3): […] | fold-induction (Emax) ([8]; range across three donors): […] | Emax Fold ([9]; Donor 1): […] | EC50 ([9]; Donor 2): 5.22 µM | Emax Fold ([9]; Donor 2): […] | EC50 ([9]; Donor 3): 6.04 µM | Emax Fold ([9]; Donor 3): […] | Emax Fold ([10]; Donor 1): […] | EC50 [10, 26]: […] | EC50 ([10]; Donor 2): […] | Emax Fold ([10]; Donor 2): […] | EC50 ([10]; Donor 3): […] | Emax Fold ([10]; Donor 3): […] | fold-induction (Emax) ([10]; range across three donors): […] | EC50 ([11]; Donor 1): […] | Emax Fold ([11]; Donor 1): […] | EC50 ([11]; Donor 2): […] | Emax Fold ([11]; Donor 2): […] | EC50 ([11]; Donor 3): […] | Emax Fold ([11]; Donor 3): […] | Emax Fold ([12]; Donor 1): […] | Emax Fold ([12]; Donor 2): […] | EC50 ([12]; Donor 3): 23.7 µM | Emax Fold ([12]; Donor 3): […] | EC50 ([13]; Donor 1): 0.455 µM | Emax Fold ([13]; Donor 1): […] | EC50 ([13]; Donor 2): 1.03 µM | Emax Fold ([13]; Donor 2): […] | EC50 ([13]; Donor 3): 0.865 µM | Emax Fold ([13]; Donor 3): […]

CC(NC(C)(C)C)C(=O)c1cccc(Cl)c1 (centres unmarked) [Bupropion, bupropion]
% AUC Reduction (Clinically Observed) [14, 27]: 67.2%

NC(=O)N1c2ccccc2C=Cc2ccccc21 [Carbamazepine, carbamazepine]
EC50 at 96 h [2]: 9.86 µM | EC50 at 96 h [3]: 124 µM | EC50 at 96 h [4]: 46.9 µM | EC50 at 96 h [5]: 41.4 µM | EC50 ([6]; Donor 1): 35.6 µM | Emax Fold ([6]; Donor 1): […] | EC50 ([6]; Donor 2): 20 µM | Emax Fold ([6]; Donor 2): […] | EC50 ([6]; Donor 3): 40.2 µM | Emax Fold ([6]; Donor 3): […] | Emax Fold ([7]; Donor 1): […] | Emax Fold ([7]; Donor 2): […] | Emax Fold ([7]; Donor 3): […] | Emax Fold ([8]; Donor 1): […] | EC50 ([8]; Donor 2): 41.9 µM | EC50 ([8]; Donor 3): 59 µM | Emax Fold ([8]; Donor 3): […] | Emax Fold ([9]; Donor 1): […] | EC50 ([9]; Donor 2): 186 µM | EC50 ([9]; Donor 3): 182 µM | Emax Fold ([9]; Donor 3): […] | Emax Fold ([10]; Donor 1): […] | EC50 [10, 26]: […] | EC50 ([10]; Donor 2): […] | Emax Fold ([10]; Donor 2): […] | EC50 ([10]; Donor 3): […] | Emax Fold ([10]; Donor 3): […] | EC50 ([11]; Donor 1): […] | Emax Fold ([11]; Donor 1): […] | EC50 ([11]; Donor 2): […] | Emax Fold ([11]; Donor 2): […] | EC50 ([11]; Donor 3): […] | Emax Fold ([12]; Donor 1): […] | Emax Fold ([12]; Donor 2): […] | Emax Fold ([12]; Donor 3): […] | EC50 ([13]; Donor 1): 8.14 µM | EC50 ([13]; Donor 2): 2.05 µM | EC50 ([13]; Donor 3): 18 µM

O=C1Nc2ccc(Cl)cc2[C@@](C#CC2CC2)(C(F)(F)F)O1 [Efavirenz, efavirenz]
EC50 at 96 h [15]: […] | EC50 at 96 h [2]: 0.455 µM | EC50 at 96 h [4]: […] | EC50 at 96 h [5]: 4.29 µM | EC50 ([6]; Donor 1): 4.48 µM | Emax Fold ([6]; Donor 1): […] | EC50 ([6]; Donor 2): 1.97 µM | Emax Fold ([6]; Donor 2): […] | EC50 ([6]; Donor 3): 2.95 µM | Emax Fold ([6]; Donor 3): […] | Emax Fold ([7]; Donor 1): […] | Emax Fold ([7]; Donor 2): […] | Emax Fold ([7]; Donor 3): […] | Emax Fold ([8]; Donor 1): […] | EC50 ([8]; Donor 2): […] | Emax Fold ([8]; Donor 2): […] | EC50 ([8]; Donor 3): […] | Emax Fold ([8]; Donor 3): […] | EC50 ([9]; Donor 1): 8.3 µM | Emax Fold ([9]; Donor 1): […] | Emax Fold ([9]; Donor 2): […] | EC50 ([9]; Donor 3): 2.91 µM | Emax Fold ([9]; Donor 3): […] | Emax Fold ([10]; Donor 1): […] | EC50 ([10]; Donor 2): […] | Emax Fold ([10]; Donor 2): […] | EC50 ([10]; Donor 3): […] | Emax Fold ([10]; Donor 3): […] | EC50 ([11]; Donor 1): […] | Emax Fold ([11]; Donor 1): […] | EC50 ([11]; Donor 2): […] | Emax Fold ([11]; Donor 2): […] | EC50 ([11]; Donor 3): […] | Emax Fold ([11]; Donor 3): […] | Emax Fold ([12]; Donor 1): […] | Emax Fold ([12]; Donor 2): […] | Emax Fold ([12]; Donor 3): […] | EC50 ([13]; Donor 1): 0.946 µM | Emax Fold ([13]; Donor 1): […] | EC50 ([13]; Donor 2): 0.297 µM | Emax Fold ([13]; Donor 2): […] | EC50 ([13]; Donor 3): 2.48 µM | Emax Fold ([13]; Donor 3): […]

COc1ccc(Cl)cc1C(=O)NCCc1ccc(S(=O)(=O)NC(=O)NC2CCCCC2)cc1 [Glyburide, glyburide]
% AUC Reduction (Clinically Observed) [14, 27]: 38.9%

Cc1ncc2n1-c1ccc(Cl)cc1C(c1ccccc1F)=NC2 [Midazolam, midazolam]
% AUC Reduction (Clinically Observed) ([14]; in vivo): 94.7%

COc1ccc2[nH]c([S+]([O-])Cc3ncc(C)c(OC)c3C)nc2c1 (centres unmarked) [Omeprazole, omeprazole]
% AUC Reduction (Clinically Observed) [14, 27]: 86.1% | fm CYP3A4 [16]: 0.32 | fm CYP2C19 [17, 28]: 0.68

CCc1ccc(CCOc2ccc(CC3SC(=O)NC3=O)cc2)nc1 (centres unmarked) [Pioglitazone, pioglitazone]
fm CYP2C8 [18]: 0.56 | % AUC Reduction (Clinically Observed) [14, 27]: 56.3% | fm CYP3A4 [16]: 0.37

CCOc1cc(CC(=O)N[C@@H](CC(C)C)c2ccccc2N2CCCCC2)ccc1C(=O)O [Repaglinide, repaglinide]
fm CYP2C8 [18]: 0.26 | % AUC Reduction (Clinically Observed) [14, 27]: 57.5% | fm CYP3A4 [16]: 0.74

CO[C@H]1/C=C/O[C@@]2(C)Oc3c(C)c(O)c4c(O)c(c(/C=N/N5CCN(C)CC5)c(O)c4c3C2=O)NC(=O)/C(C)=C\C=C\[C@H](C)[C@H](O)[C@@H](C)[C@@H](O)[C@@H](C)[C@H](OC(C)=O)[C@@H]1C [Rifampicin, rifampicin]
induction of CYP2B6 mRNA levels [19]: 9 fold | induction of CYP2C8 mRNA levels [20]: 12 fold | CYP2C19 induction [21]: 8 fold | EC50 at 96 h ([1]; both): 0.26 to 0.504 µM | EC50 at 96 h ([3]; both): 0.803 to 1.64 µM | EC50 at 96 h ([4]; both): 0.399 to 0.53 µM | EC50 at 96 h [4]: 0.415 µM | EC50 ([6]; Donor 2): 0.26 µM | EC50 ([6]; Donor 3): 0.307 µM | EC50 ([8]; Donor 2): 0.53 µM | EC50 ([8]; Donor 3): 0.399 µM | EC50 ([9]; Donor 1): 1.64 µM | EC50 ([9]; Donor 2): 0.803 µM | EC50 ([9]; Donor 3): 1.47 µM

CC(=O)C[C@@H](c1ccccc1)c1c(O)c2ccccc2oc1=O [S-warfarin]
fm via CYP3A4 [16]: 0.05 | fm via CYP2C9 [22]: 0.64 | fm via CYP2B6 [23]: 0.12

CCCCNC(=O)NS(=O)(=O)c1ccc(C)cc1 [Tolbutamide, tolbutamide]
fm Other CYPs [24]: 0.15 | % AUC Reduction (Clinically Observed) [14, 27]: 63.5%

CC(=O)CC(c1ccccc1)c1c(O)c2ccccc2oc1=O (centres unmarked) [Warfarin, warfarin]
fm CYP2C9 [22, 28]: 0.64

COC(=O)[C@H](c1ccccc1Cl)N1CCc2sccc2C1 [clopidogrel]
fm via CYP2C19 [17]: 0.19 | fm via CYP2B6 [23]: 0.06 | fm via CYP1A2 [25]: 0.02
